target: T1, PDE2 (Bos taurus, UniProt P14099); experiment: Radioenzymatic phosphodiesterase assay: PDE2 inhibition; format: biochemical, bovine; details: Table 1; 10 μM test compound; read-out: PDE2 percentage of inhibition at 10 μM
T1 sequence (P14099 1-921): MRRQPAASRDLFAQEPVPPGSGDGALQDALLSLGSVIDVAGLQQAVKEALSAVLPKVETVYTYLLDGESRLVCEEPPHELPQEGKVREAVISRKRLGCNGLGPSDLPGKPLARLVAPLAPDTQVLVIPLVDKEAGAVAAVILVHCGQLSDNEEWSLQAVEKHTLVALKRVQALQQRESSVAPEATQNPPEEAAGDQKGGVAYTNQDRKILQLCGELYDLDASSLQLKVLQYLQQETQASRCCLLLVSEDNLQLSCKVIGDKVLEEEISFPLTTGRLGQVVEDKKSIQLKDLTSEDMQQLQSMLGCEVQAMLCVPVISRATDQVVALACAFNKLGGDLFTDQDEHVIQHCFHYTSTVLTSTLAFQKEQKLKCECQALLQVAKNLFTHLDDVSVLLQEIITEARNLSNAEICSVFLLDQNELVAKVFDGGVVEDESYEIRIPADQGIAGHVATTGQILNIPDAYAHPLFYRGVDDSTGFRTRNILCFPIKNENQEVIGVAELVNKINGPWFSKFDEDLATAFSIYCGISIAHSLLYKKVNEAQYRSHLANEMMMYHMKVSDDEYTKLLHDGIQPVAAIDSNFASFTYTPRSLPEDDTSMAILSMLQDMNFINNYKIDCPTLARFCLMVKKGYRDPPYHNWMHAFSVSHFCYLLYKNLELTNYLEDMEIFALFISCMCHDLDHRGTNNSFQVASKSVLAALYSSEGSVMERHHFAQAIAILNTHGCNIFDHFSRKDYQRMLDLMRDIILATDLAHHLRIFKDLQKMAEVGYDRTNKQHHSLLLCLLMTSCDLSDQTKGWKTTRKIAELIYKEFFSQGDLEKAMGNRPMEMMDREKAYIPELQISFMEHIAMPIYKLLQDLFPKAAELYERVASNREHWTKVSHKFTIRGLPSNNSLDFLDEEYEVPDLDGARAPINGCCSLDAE
Method: Nucleoside radioactivity was determined by liquid scintillation.

Row | SMILES | inhibition at 10 µM
1 | COc1cccc(-c2ccc3c(c2)C(c2cccc(C#N)c2)=NCC(=O)N3C)c1 [Example 13, 3-[7-(3-Methoxy-phenyl)-1-methyl-2-oxo-2,3-dihydro-1H-benzo[e][1,4]diazepin-5-yl]-benzonitrile] | 91%
2 | CC(=O)c1cccc(C2=NCC(=O)N(C)c3ccc(-c4ccccc4)cc32)c1 [Example 58, 5-(3-Acetyl-phenyl)-1-methyl-7-phenyl-1,3-dihydro-benzo[e][1,4]diazepin-2-one] | 91%
3 | CN1C(=O)CN=C(c2cc(Cl)cc(Cl)c2)c2cc(-c3ccccc3)ccc21 [Example 55, 5-(3,5-Dichloro-phenyl)-1-methyl-7-phenyl-1,3-dihydro-benzo[e][1,4]diazepin-2-one] | 53%
4 | COc1ccccc1-c1ccc2c(c1)C(c1cccc(C#N)c1)=NCC(=O)N2C [Example 12, 3-[7-(2-Methoxy-phenyl)-1-methyl-2-oxo-2,3-dihydro-1H-benzo[e][1,4]diazepin-5-yl]-benzonitrile] | 40%
5 | COCCCc1cccc(C2=NCC(=O)N(C)c3cc(OC)c(-c4ccccc4)cc32)c1 [Example 103, 8-Methoxy-5-[3-(3-methoxy-propyl)-phenyl]-1-methyl-7-phenyl-1,3-dihydro-benzo[e][1,4]diazepin-2-one] | 96%
6 | COc1cc2c(cc1-c1ccccc1)C(c1ccc(Br)cc1)=NCC(=O)N2 [Example 114, 5-(4-Bromo-phenyl)-8-methoxy-7-phenyl-1,3-dihydro-benzo[e][1,4]diazepin-2-one] | 72%
7 | COc1cc2c(cc1-c1ccccc1)C(c1ccccc1Br)=NCC(=O)N2C [Example 104, 5-(2-Bromo-phenyl)-8-methoxy-1-methyl-7-phenyl-1,3-dihydro-benzo[e][1,4]diazepin-2-one] | 71%
8 | COc1cc2c(cc1-c1ccc(Cl)cc1)C(c1cccc(C(N)=O)c1)=NCC(=O)N2C [Example 25, 3-[7-(4-Chloro-phenyl)-8-methoxy-1-methyl-2-oxo-2,3-dihydro-1H-benzo[e][1,4]diazepin-5-yl]-benzamide] | 97%
9 | COc1ccc(C2=NCC(=O)Nc3cc(OC)c(-c4ccccc4)cc32)cc1 [Example 76, 5-(4-Methoxy-phenyl)-8-methoxy-7-phenyl-1,3-dihydro-benzo[e][1,4]diazepin-2-one] | 91%
10 | COc1ccc(C2=NCC(=O)N(C)c3ccc(-c4ccccc4)cc32)cc1OC [Example 64, 5-(3,4-Dimethoxy-phenyl)-1-methyl-7-phenyl-1,3-dihydro-benzo[e][1,4]diazepin-2-one] | 79%
11 | CN1C(=O)CN=C(c2cccc([N+](=O)[O-])c2)c2cc(-c3ccccc3)ccc21 [Example 65, 1-Methyl-5-(3-nitro-phenyl)-7-phenyl-1,3-dihydro-benzo[e][1,4]diazepin-2-one] | 78%
12 | CN1C(=O)CN=C(c2ccc(Cl)c(Cl)c2)c2cc(-c3ccccc3)ccc21 [Example 56, 5-(3,4-Dichloro-phenyl)-1-methyl-7-phenyl-1,3-dihydro-benzo[e][1,4]diazepin-2-one] | 70%
13 | CN1C(=O)CN=C(c2cccc(Cl)c2)c2cc(-c3ccccc3)ccc21 [Example 40, 5-(3-Chloro-phenyl)-1-methyl-7-phenyl-1,3-dihydro-benzo[e][1,4]diazepin-2-one] | 68%
14 | COc1ccccc1C1=NCC(=O)N(C)c2ccc(-c3ccccc3)cc21 [Example 51, 5-(2-Methoxy-phenyl)-1-methyl-7-phenyl-1,3-dihydro-benzo[e][1,4]diazepin-2-one] | 28%
15 | COc1cc2c(cc1-c1cccc(Cl)c1)C(c1cccc(C(N)=O)c1)=NCC(=O)N2C [Example 24, 3-[7-(3-Chloro-phenyl)-8-methoxy-1-methyl-2-oxo-2,3-dihydro-1H-benzo[e][1,4]diazepin-5-yl]-benzamide] | 98%

same assay, conditions: read-out: PDE2 percentage of inhibition at 10 μM

Row | SMILES | inhibition at 10 µM
16 | COc1cc2c(cc1-c1ccccc1)C(c1cccc(C#N)c1)=NCC(=O)N2C [Example 1, 3-(8-Methoxy-1-methyl-2-oxo-7-phenyl-2,3-dihydro-1H-benzo[e][1,4]diazepin-5-yl)-benzonitrile] | 83%
17 | COc1cc2c(cc1-c1ccccc1)C(c1cccc(C#CCNC(=O)OC(C)(C)C)c1)=NCC(=O)N2C [Example 67, {3-[3-(8-Methoxy-1-methyl-2-oxo-7-phenyl-2,3-dihydro-1H-benzo[e][1,4]diazepin-5-yl)-phenyl]-prop-2-ynyl}-carbamic acid tert-butyl ester] | 60%
18 | COc1cc2c(cc1-c1c(OC)cccc1OC)C(c1cccc(C#N)c1)=NCC(=O)N2C [Example 89, 3-[7-(2,6-Dimethoxy-phenyl)-8-methoxy-1-methyl-2-oxo-2,3-dihydro-1H-benzo[e][1,4]diazepin-5-yl]-benzonitrile] | 99%
19 | COc1ccc(OC)c(-c2ccc3c(c2)C(c2cccc(C#N)c2)=NCC(=O)N3C)c1 [Example 15, 3-[7-(2,5-Dimethoxy-phenyl)-1-methyl-2-oxo-2,3-dihydro-1H-benzo[e][1,4]diazepin-5-yl]-benzonitrile] | 98%
20 | COc1ccccc1-c1cc2c(cc1OC)N(C)C(=O)CN=C2c1cccc(C#N)c1 [Example 3, 3-[8-Methoxy-7-(2-methoxy-phenyl)-1-methyl-2-oxo-2,3-dihydro-1H-benzo[e][1,4]diazepin-5-yl]-benzonitrile] | 100%
21 | COc1cc2c(cc1-c1ccc(C#N)cc1)C(c1cccc(C#N)c1)=NCC(=O)N2C [Example 43, 3-(8-Methoxy-1-methyl-2-oxo-7-(4-cyanophenyl)-2,3-dihydro-1H-benzo[e][1,4]diazepin-5-yl)-benzonitrile] | 92%
22 | COc1cc2c(cc1-c1ccc(C(C)=O)cc1)C(c1cccc(C(N)=O)c1)=NCC(=O)N2C [Example 49, 3-[7-(4-Acetylphenyl)-8-methoxy-1-methyl-2-oxo-2,3-dihydro-1H-benzo[e][1,4]diazepin-5-yl]-benzamide] | 99%
23 | COCC#Cc1ccc(C2=NCC(=O)N(C)c3cc(OC)c(-c4ccccc4)cc32)cc1 [Example 98, 8-Methoxy-5-[4-(3-methoxy-prop-1-ynyl)-phenyl]-1-methyl-7-phenyl-1,3-dihydro-benzo[e][1,4]diazepin-2-one] | 80%
24 | COCC#Cc1cccc(C2=NCC(=O)N(C)c3cc(OC)c(-c4ccccc4)cc32)c1 [Example 95, 8-Methoxy-5-[3-(3-methoxy-prop-1-ynyl)-phenyl]-1-methyl-7-phenyl-1,3-dihydro-benzo[e][1,4]diazepin-2-one] | 89%
25 | N#Cc1cccc(C2=NCC(=O)Nc3cc(OC(F)(F)F)c(-c4ccccc4)cc32)c1 [Example 85, 3-(2-Oxo-7-phenyl-8-trifluoromethoxy-2,3-dihydro-1H-benzo[e][1,4]diazepin-5-yl)-benzonitrile] | 70%
26 | CN1C(=O)CN=C(c2cccc(C(N)=O)c2)c2cc(-c3ccccc3)c(Oc3ccccc3)cc21 [Example 72, 3-(1-Methyl-2-oxo-8-phenoxy-7-phenyl-2,3-dihydro-1H-benzo[e][1,4]diazepin-5-yl)-benzamide] | 28%
27 | CN1C(=O)CN=C(c2cccc(C(N)=O)c2)c2cc(-c3ccccc3Cl)c(Oc3ccccc3)cc21 [Example 73, 3-[7-(2-Chloro-phenyl)-1-methyl-2-oxo-8-phenoxy-2,3-dihydro-1H-benzo[e][1,4]diazepin-5-yl]-benzamide] | 96%

From patent US7410963B2, “Benzo-1,4-diazepin-2-one derivatives as phosphodiesterase PDE2 inhibitors, preparation and therapeutic use thereof” (VIA Pharmaceuticals, Inc., priority 2003, dated 2008)
